This is an account of results in patent US9850247B2 (Almac Discovery Limited, priority 2013, dated 2017).

Counter-ions that a name gives are not always drawn.

By kinetic solubility is commonly meant the concentration staying in solution when a stock, usually in DMSO, is diluted into the medium.

The target of series [1] is T1, Wee-1 kinase (Homo sapiens, UniProt P30291).
T1 construct: purchased Invitrogen PV3817
Put plainly: Measurement of Wee-1 kinase activity (ADP-Glo luminescent kit). Type of series: biochemical. In outline:
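ADP-Glo luminescence reads ADP made over 1 h at RT, after an aliquot of 30 μM ATP and 2.0 μg/mL poly(Lys,Tyr 4:1) substrate. Before that, the kinase sat 30 min with inhibitor in Tris-HCl/MgCl2 buffer with BSA and DTT. IC50 came from regression of percent inhibition.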
For orientation: In ADP-Glo the light output rises with the ADP produced.

Series [2] is described as follows: CLint estimates using human liver microsomes (Method 4). In kind it is in vitro ADME. The conditions noted are these: pH 7.4, 1 μM compound, read-out: Mics - CLint (HLM CLint). Summed up: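 Depletion measured by LC/MS/MS in MRM mode over 2–50 min after starting reactions with 1 mM NADPH. Incubations used 0.5 mg/mL human liver microsomal protein, 1 μM compound, 0.1% DMSO, pH 7.4 phosphate buffer, 37 °C. ln peak area plotted against time; the gradient gave t½ and intrinsic clearance.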

Series [3] deals with phospho-cdc2 (Tyr15) in HT-29 cells. Put plainly: Effect on phosphorylation of cdc2 at Tyr15, PathScan ELISA (Method 2). In kind it is cell-based. The conditions noted are these: Homo sapiens, 8 h, eight hours incubation, read-out: HT29 pCDC2 method 2. The protocol:
Method 2: Determining the Effect of Compounds on the phosphorylation of cdc2 at Tyr15
The colorectal cancer cell lines HT-29 and HCT-116 were purchased from the ATCC and routinely maintained in McCoy's Medium (Invitrogen) supplemented with 10% Foetal Calf Serum.
The cells were trypsinised from their growing vessel and counted, 100 μL of cell suspension containing 6000 cells was pipetted into black 96 well Co-star plates and incubated overnight to allow adherence to the surface at a temperature of 37° C. and an atmosphere of 5% CO2. Test compounds were formulated in DMSO and diluted in foetal calf serum supplemented medium. Incubating medium was removed by aspiration and diluted drug supplemented medium added to each well.
The plate was returned to the incubator for an additional eight hours at 37° C. and an atmosphere of 5% CO2. Post incubation, the drug supplemented medium was aspirated from each well and the cells were washed once in ice-cold phosphate buffered saline (PBS). 100 μL of cell lysis buffer (Cell Signalling Technologies #9803) containing 20 mM Tris, 150 mM NaCl, 1 mM EDTA, 1 mM EGTA, 1% Triton-X100, 2.5 mM sodium pyrophosphate, 1 mM glycerophosphate, 1 mM Na3VO4 and 1 μg/mL leupeptin was added to each well of the 96 well plate and incubated at 4° C. for 30 min. The samples on the plate were snap frozen at −80° C. until required. Immediately before the continuation of the assay, the sample plate was thawed and centrifuged at 4° C. for 10 min and the supernatant transferred to secondary tubes or 96 well plate.
Cell supernatant was mixed in a ratio of 1:1 with sample dilutent buffer and vortexed for one minute. 100 μL of diluted sample was pipetted into pre-coated plates containing a rabbit polyclonal antibody for phospho-cdc2 (Tyr15) (Cell Signalling Technologies PathScan kit #7176). The plate was sealed and incubated overnight at 4° C.
The plate seal was removed and the well contents aspirated, followed by 3×5 min washes with 200 μL of diluted wash buffer. Between each wash the plate was tapped firmly onto blotting paper to ensure the removal of all kit solution. 100 μL of kit detection antibody was added to each well and the plate re-sealed and incubated at 37° C. for 1 h. Post incubation the plate was washed and processed in a similar manner to that previously described.
100 μL of horseradish peroxidise-linked secondary antibody was added to each test well, the plate sealed and incubated for thirty minutes at 37° C. Post incubation, the plate was washed as previously stated, followed by the addition of 100 μL of 3,3′,5,5′ tetramethylbenzidine (TMB reagent). The plate was sealed and incubated at RT for 30 min.
100 μL of stop solution was added to each well and the underside of the plate wiped with a lint-free tissue, prior to spectrophotometric determination. Absorbance from each well was read at 450 nm within 30 min of the addition of the stop solution.
The percentage of phospho-cdc2 was calculated compared to DMSO control and plotted versus the concentration of inhibitor using GraphPad Prism. Data was fitted using non-linear regression analysis and IC50 values generated.

The nature of series [4]: Kinetic solubility in PBS buffer (Method 5). The following applies: aqueous buffer, kinetic from dmso stock; PBS buffer pH 7.4. In kind it is physicochemical. The protocol: [formula] [formula] [formula] where V=Incubation volume (μL)/number of cells Method 5: Determination of Kinetic Solubility (in PBS Buffer)
Test compounds (5 μL; 10 mM DMSO stock) were added to 245 μL 10 of PBS buffer pH 7.4 (Dulbecco A) in a Millipore MultiScreen® Solubility Filter plate and mixed at 300 rpm at room temperature on a plate shaker for 90 minutes. Meanwhile 5-points calibration curves for each compound were established in a mixture of acetonitrile/PBS buffer 15 (top concentration 200 μM). After filtration and matrix match, the calibration and assay plates were analysed on a Bioteck Synergy 4 plate reader (240-400 nm). Final concentration of the test compound in the filtrate was calculated using the slope of the calibration curve. All 20 measurements were carried out in triplicate.

Series [5] deals with T2, human ether a go-go related gene (hERG) K′ channel (Homo sapiens, UniProt Q12809).
T2 construct: Essen BioScience
Put plainly: hERG activity, IonWorks patch clamp electrophysiology (Method 6). Type of series: cell-based. The protocol: Method 6: Determination of hERG Activity
Compounds were tested for inhibition of the human ether a go-go related gene (hERG) K′ channel using IonWorks patch clamp electrophysiology at Essen BioScience. 8-Point concentration-response curves of the effect of compound on hERG current as a percentage of pre-compound signal were generated using 3-fold serial dilutions from 11 μM and results are reported as IC50 in μM.
On the technique in general: hERG is a cardiac potassium channel; its block is linked to QT prolongation.

T2 sequence (Q12809 whole entry): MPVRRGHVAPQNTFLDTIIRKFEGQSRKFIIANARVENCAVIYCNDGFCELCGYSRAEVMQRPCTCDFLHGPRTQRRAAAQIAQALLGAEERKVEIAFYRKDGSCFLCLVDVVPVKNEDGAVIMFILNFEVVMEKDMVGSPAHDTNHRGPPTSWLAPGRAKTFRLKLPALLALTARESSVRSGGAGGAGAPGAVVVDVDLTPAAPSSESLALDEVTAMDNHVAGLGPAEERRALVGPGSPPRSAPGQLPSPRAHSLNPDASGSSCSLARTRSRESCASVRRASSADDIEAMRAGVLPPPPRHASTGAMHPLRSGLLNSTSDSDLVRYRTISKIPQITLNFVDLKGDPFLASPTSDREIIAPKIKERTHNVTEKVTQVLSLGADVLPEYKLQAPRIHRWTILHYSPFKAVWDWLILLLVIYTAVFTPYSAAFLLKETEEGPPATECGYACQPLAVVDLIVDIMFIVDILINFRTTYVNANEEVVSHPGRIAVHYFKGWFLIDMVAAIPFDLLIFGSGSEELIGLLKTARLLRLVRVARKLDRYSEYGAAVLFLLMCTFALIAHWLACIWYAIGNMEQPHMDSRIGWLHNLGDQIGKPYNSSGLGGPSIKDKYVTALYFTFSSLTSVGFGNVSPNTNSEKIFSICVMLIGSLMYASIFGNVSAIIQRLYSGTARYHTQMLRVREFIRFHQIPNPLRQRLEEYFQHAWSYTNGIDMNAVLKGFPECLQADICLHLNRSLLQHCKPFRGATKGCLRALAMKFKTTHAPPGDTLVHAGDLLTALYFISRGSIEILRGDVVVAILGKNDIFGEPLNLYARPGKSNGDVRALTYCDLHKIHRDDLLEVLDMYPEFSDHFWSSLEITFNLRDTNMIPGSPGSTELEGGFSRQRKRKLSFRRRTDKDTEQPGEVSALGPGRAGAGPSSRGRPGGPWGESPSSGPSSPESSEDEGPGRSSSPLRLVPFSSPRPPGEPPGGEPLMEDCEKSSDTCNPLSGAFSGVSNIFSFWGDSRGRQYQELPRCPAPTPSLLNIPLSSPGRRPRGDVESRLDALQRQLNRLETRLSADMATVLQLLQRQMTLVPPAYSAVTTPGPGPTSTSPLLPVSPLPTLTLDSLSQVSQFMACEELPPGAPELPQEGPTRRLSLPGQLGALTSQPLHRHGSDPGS
T1 sequence (P30291 whole entry): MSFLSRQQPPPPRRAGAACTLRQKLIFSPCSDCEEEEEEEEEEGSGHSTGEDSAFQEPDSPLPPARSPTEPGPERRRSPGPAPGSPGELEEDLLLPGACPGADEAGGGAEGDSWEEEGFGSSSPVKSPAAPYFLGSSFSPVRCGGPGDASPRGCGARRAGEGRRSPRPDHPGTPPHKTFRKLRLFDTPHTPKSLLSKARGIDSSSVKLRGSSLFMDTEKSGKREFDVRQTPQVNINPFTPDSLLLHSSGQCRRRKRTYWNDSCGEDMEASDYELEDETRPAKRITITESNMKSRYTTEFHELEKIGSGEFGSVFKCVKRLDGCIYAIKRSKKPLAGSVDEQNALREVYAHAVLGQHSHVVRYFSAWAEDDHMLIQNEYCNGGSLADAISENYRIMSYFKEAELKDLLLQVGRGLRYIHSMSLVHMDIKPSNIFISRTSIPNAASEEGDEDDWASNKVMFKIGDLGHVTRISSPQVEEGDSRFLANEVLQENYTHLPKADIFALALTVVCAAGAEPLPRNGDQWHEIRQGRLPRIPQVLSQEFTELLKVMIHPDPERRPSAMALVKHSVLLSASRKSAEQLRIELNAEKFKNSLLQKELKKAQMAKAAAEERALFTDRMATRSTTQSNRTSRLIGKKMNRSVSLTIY

For `CN1c2nc(Nc3ccc4c(c3)CNCC4)ncc2C(=O)N(c2c(Cl)cccc2Cl)C1c1ccccc1` (racemic) [Example 23, (rac)-3-(2,6-Dichlorophenyl)-1-methyl-2-phenyl-7-((1,2,3,4-tetrahydroisoquinolin-7-yl)amino)-2,3-dihydropyrimido[4,5-d]pyrimidin-4(1H)-one], the IC50 in series [1] was at least 100 nM; in series [3] it was at least 1000 nM. In series [2], the microsomal CLint at 1 μM is 15 to 50 µL/min/mg.

Take `Cc1cc(Nc2ncc3c(n2)N(C)CN(c2c(Cl)cccc2Cl)C3=O)ccc1N1CCNCC1` [drawing 385]: the solubility (kinetic) at 90 min in series [4] was over 150 µM.

Regarding `Cc1cn(-c2c(Cl)cccc2Cl)c(=O)c2cnc(Nc3ccc(N4CCNCC4)cc3)nc12` [reference compound], the kinetic solubility at 90 min in series [4] was under 50 µM.

`CN1CN(c2c(Cl)cccc2Cl)C(=O)c2cnc(Nc3ccc(N4CCNCC4)c(F)c3)nc21` [Example 7, 3-(2,6-Dichlorophenyl)-7-((3-fluoro-4-(piperazin-1-yl)phenyl)amino)-1-methyl-2,3-dihydropyrimido[4,5-d]pyrimidin-4(1H)-one]: the IC50 in series [1] fell in the range of 10 to 100 nM; in series [3] it was 100 to 1000 nM. Further, the microsomal CLint at 1 μM in series [2] is at most 15 µL/min/mg.

Turning to `Cc1cc(Nc2ncc3c(=O)n(-c4c(Cl)cccc4Cl)cc(C)c3n2)ccc1N1CCNCC1` [reference compound], the kinetic solubility at 90 min in series [4] was under 50 µM.

`CN1CN(c2c(Cl)cccc2Cl)C(=O)c2cnc(Nc3ccc(N4CCNCC4)c(CO)c3)nc21` [Example 10, 3-(2,6-Dichlorophenyl)-7-((3-(hydroxymethyl)-4-(piperazin-1-yl)phenyl)amino)-1-methyl-2,3-dihydropyrimido[4,5-d]pyrimidin-4(1H)-one]: the IC50 is at most 10 nM in series [1], over 10 µM in series [5] and 100 to 1000 nM in series [3]. Also, the microsomal CLint at 1 μM in series [2] was at most 15 µL/min/mg.

For `CN1CN(c2c(Cl)cccc2Cl)C(=O)c2cnc(Nc3ccc(N4CCN[C@H](CO)C4)cc3)nc21` [Example 20, (S)-3-(2,6-Dichlorophenyl)-7-((4-(3-(hydroxymethyl)piperazin-1-yl)phenyl)amino)-1-methyl-2,3-dihydropyrimido[4,5-d]pyrimidin-4(1H)-one], the results for the IC50 in series [1], in series [5] and in series [3] were at most 10 nM, over 10 µM and 100 to 1000 nM, respectively. Also, the microsomal CLint at 1 μM in series [2] is 15 to 50 µL/min/mg.

With `CN1CN(c2c(Cl)cccc2Cl)C(=O)c2cnc(Nc3ccc(N4CCNCC4)cc3)nc21` [drawing 383], the kinetic solubility at 90 min in series [4] is over 150 µM.

In the case of `CC1N(C)c2nc(Nc3ccc(N4CCNCC4)cc3)ncc2C(=O)N1c1c(Cl)cccc1Cl` (stereo not drawn) [Example 26, 3-(2,6-Dichlorophenyl)-1,2-dimethyl-7-((4-(piperazin-1-yl)phenyl)amino)-2,3-dihydropyrimido[4,5-d]pyrimidin-4(1H)-one], the IC50 in series [1] was 10 to 100 nM; in series [3] it was at least 1000 nM. In addition, the microsomal CLint at 1 μM in series [2] was at most 15 µL/min/mg.

`CN1CN(c2c(Cl)cccc2Cl)C(=O)c2cnc(Nc3ccc(CN4CCOCC4)cc3)nc21` [Example 27, 3-(2,6-Dichlorophenyl)-1-methyl-7-((4-(morpholinomethyl)phenyl)amino)-2,3-dihydropyrimido[4,5-d]pyrimidin-4(1H)-one]: the IC50 in series [1] lay in the range of 10 to 100 nM; in series [3], 100 to 1000 nM. Also, in series [2], the microsomal CLint at 1 μM was at least 50 µL/min/mg.

As to `O=C1c2cnc(Nc3ccc(N4CCNCC4)cc3)nc2N2CCCC2N1c1c(Cl)cccc1Cl` (stereo not drawn) [Example 28, 6-(2,6-Dichlorophenyl)-2-((4-(piperazin-1-yl)phenyl)amino)-6a,7,8,9-tetrahydropyrimido[5,4-e]pyrrolo[1,2-a]pyrimidin-5(6H)-one], the IC50 in series [1] fell in the range of 10 to 100 nM; in series [3], 100 to 1000 nM. The microsomal CLint at 1 μM in series [2] is at most 15 µL/min/mg.

For the molecule `CN1CCN(Cc2ccc(Nc3ncc4c(n3)N(C)CN(c3c(Cl)cccc3Cl)C4=O)cc2)CC1` [Example 29, 3-(2,6-Dichlorophenyl)-1-methyl-7-((4-((4-methylpiperazin-1-yl)methyl)phenyl)amino)-2,3-dihydropyrimido[4,5-d]pyrimidin-4(1H)-one], the IC50 in series [1] fell in the range of 10 to 100 nM; in series [3], 100 to 1000 nM. In addition, the microsomal CLint at 1 μM in series [2] was at least 50 µL/min/mg.

On to `CN1CN(c2c(Cl)cccc2Cl)C(=O)c2cnc(Nc3ccc(CN4CCNCC4)cc3)nc21` [Example 12, 3-(2,6-Dichlorophenyl)-1-methyl-7-((4-(piperazin-1-ylmethyl)phenyl)amino)-2,3-dihydropyrimido[4,5-d]pyrimidin-4(1H)-one], for which the IC50 in series [1] was 10 to 100 nM; in series [5], over 10 µM; in series [3], 100 to 1000 nM. In addition, in series [2], the microsomal CLint at 1 μM was at most 15 µL/min/mg.

For the molecule `CN1CN(c2c(Cl)cccc2Cl)C(=O)c2cnc(Nc3ccc(S(C)(=N)=O)cc3)nc21` (racemic) [Example 30, (rac)-3-(2,6-Dichlorophenyl)-1-methyl-7-((4-(S-methylsulfonimidoyl)phenyl)amino)-2,3-dihydropyrimido[4,5-d]pyrimidin-4(1H)-one], the IC50 in series [1] was 10 to 100 nM; in series [3] it was at least 1000 nM.

As to `CN1CN(c2c(Cl)cccc2Cl)C(=O)c2cnc(Nc3ccc(N4CCN(CC(=O)O)CC4)cc3)nc21` [Example 4, 2-(4-(4-((6-(2,6-Dichlorophenyl)-8-methyl-5-oxo-5,6,7,8-tetrahydropyrimido[4,5-d]pyrimidin-2-yl)amino)phenyl)piperazin-1-yl)acetic acid hydrochloride], the IC50 in series [1] is 10 to 100 nM; in series [3] it was at least 1000 nM. For the same molecule, the microsomal CLint at 1 μM in series [2] is at most 15 µL/min/mg.

`O=C1c2cnc(Nc3ccc(N4CCNCC4)cc3)nc2NCN1c1c(Cl)cccc1Cl` [Example 9, 3-(2,6-Dichlorophenyl)-7-((4-(piperazin-1-yl)phenyl)amino)-2,3-dihydropyrimido[4,5-d]pyrimidin-4(1H)-one]: the IC50 in series [1] lay within 10 to 100 nM; in series [3], 100 to 1000 nM. Also, in series [2], the microsomal CLint at 1 μM was at most 15 µL/min/mg.
